Laboratory results reported in patent US6812034B2, “Fetuin-MGP-mineral complex in serum assayed to determine calcification risk” (The Regents of the University of California, priority 2000, dated 2004).

Assays:
[1] = weight, tibia length and serum calcium and phosphate in warfarin-treated rats; format: in vivo, rat
From the text: This procedure induces artery calcification within 2 weeks without the presence of hypercalcemia.

[2] = filtration of serum through a 300 kDa membrane; format: in vivo, rat
Protocol: In a typical experiment, blood was obtained from 2 control rats and from 2 rats 6 h after a dose of 8 mg etidronate/100 g, and each blood sample was immediately placed into a 2.5 ml gold top vacutainer tube (SST gel and clot activator tube, Becton Dickinson). […] The filtrate and retentate were then analyzed to determine calcium, phosphate, and volume. The typical filtrate volume recovered was 0.70 ml and the typical retentate volume recovered was 0.26 ml.

[3] = test system: warfarin-induced artery calcification; experiment: artery calcification in rats treated with warfarin for 2 or 4 weeks; format: in vivo, rat; conditions: 6.25 mg P/kg/day plus warfarin, both carotid arteries
Protocol: Tissues were subsequently washed extensively with buffer and extracted with 1 ml of 10% formic acid for 24 h at room temperature, as described. Calcium levels in serum were determined colorimetrically using cresolphthalein complexone (Sigma) and phosphate levels in serum and in acid tissue extracts were determined calorimetrically as described (Zhu et al. (1994) Cardiology, 85: 370-377). Tissue sectioning and staining were carried out by Biomedical Testing Services, Inc., (San Diego, Calif.). The effect of bisphosphonates on artery calcification was also examined in rats treated with warfarin alone using procedures which have been described elsewhere (Price et al. (1998) Arterioscler. Thromb. Vasc. Biol. 18: 1400-1407).

[4] = previous study (Price et al. 1981); cited from earlier work
[5] = test system: aorta calcification in rats treated with vitamin D plus warfarin; experiment: von Kossa staining for calcification in rats treated with vitamin D plus warfarin; format: in vivo, rat; conditions: 84 h; for Histology Score Observer #1 x ± S.D. / Histology Score Observer #2 x ± S.D.: score 0-5
Protocol: (§1) For measurement of mineral accumulation in arteries, each tissue was removed within 30 minutes of death and immediately frozen. Tissues were subsequently washed extensively with buffer and extracted with 1 ml of 10% formic acid for 24 h at room temperature, as described. Calcium levels in serum were determined colorimetrically using cresolphthalein complexone (Sigma) and phosphate levels in serum and in acid tissue extracts were determined calorimetrically as described (Zhu et al. (1994) Cardiology, 85: 370-377). Tissue sectioning and staining were carried out by Biomedical Testing Services, Inc., (San Diego, Calif.).
Male Sprague Dawley rats were fed ad libitum with rodent diet 5001 (Purina Mills Inc., St. Louis, Mo.), a diet that is 0.67% phosphorus and 0.95% calcium by weight. This diet contains 500 μg per kg of phylloquinone and has no added menadione. In all experiments, animals were killed by exsanguination while under metofane anesthetic, and selected tissues were removed immediately and fixed in 10% buffered formalin or frozen at −20° C. for later studies. All animal experiments were approved by the UCSD animal subjects committee.

[6] = test system: arotinoid-induced bone resorption; conditions: relative antiresorption potency in the rat, etidronate = 1; cited from earlier work
[7] = serum levels of calcium and phosphate in rats treated with vitamin D plus warfarin; format: in vivo, rat
Protocol: as §1, with “Calif.). […]” for “Calif.).”

[8] = 6.25 mg P/kg/day plus warfarin, 4 weeks
[9] = 8 mg/100 g sc, 6 h, 0.26 ml retentate, 300 kDa membrane
[10] = 8 mg/100 g sc, 6 h, 0.7 ml filtrate, 300 kDa membrane
[11] = 8 mg/100 g sc, 6 h, 1 ml serum prior to filtration
[12] = 8 mg/100 g, 6 h serum incubated at room temperature for 1 day
[13] = 6.25 mg P/kg/day, 84 h after first vitamin D

Compound: CC(O)(P(=O)(O)O)P(=O)(O)O [Etidronate, (1-hydroxyethylylidene)-bisphosphonate]
- final length of the tibia ([1]; 6.25 mg P/kg/day plus warfarin 4 weeks, warfarin alone 3.80±0.04, p<0.001): 3.59±0.03 cm
- Ending wt [1, 8]: 238 ± 11 gm
- effect on weight gain [1, 8]: inhibits weight gain
- mg Ca dl serum [1, 8]: 10.9 ± 0.8 mg/dL
- mg P dl serum [1, 8]: 8.1 ± 0.6 mg/dL
- Calcium, Retentate [2, 9]: 2.72 µmol
- MGP, Retentate [2, 9]: 11,630 ng
- Phosphate, Retentate [2, 9]: 1.84 µmol
- Calcium, Filtrate [2, 10]: 1.18 µmol
- MGP, Filtrate [2, 10]: 291 ng
- Phosphate, Filtrate [2, 10]: 2.98 µmol
- Calcium, Initial Serum [2, 11]: 4.30 µmol
- MGP, Initial Serum [2, 11]: 14,800 ng
- Phosphate, Initial Serum [2, 11]: 5.10 µmol
- filtrate MGP [2, 12]: 320 ng
- filtrate calcium [2, 12]: 1.21 µmol
- filtrate phosphate [2, 12]: 2.79 µmol
- retentate MGP [2, 12]: 12,127 ng
- retentate phosphate [2, 12]: 2.02 µmol
- retentate calcium ([2]; 8 mg/100 g, 6 h serum incubated at room temperature for 1 day, then 300 kDa filtration): 2.83 µmol
- retentate and filtrate levels of calcium, phosphate and MGP vs serum filtered immediately ([2]; serum frozen on dry ice and thawed 5 times): comparable
- nmol PO4 Carotid [3]: 55.2 ± 14.5 nmol
- transient elevation in serum BGP levels [4]: 3 fold
- Histology Score Observer #1 x ± S.D. ([5]; 0.25 mg P/kg/day sc): 3.5 ± 1.3
- Histology Score Observer #2 x ± S.D. ([5]; 0.25 mg P/kg/day sc): 4.5 ± 1.0
- Histology Score Observer #1 x ± S.D. ([5]; 1.25 mg P/kg/day sc): 1.8 ± 2.4
- Histology Score Observer #2 x ± S.D. ([5]; 1.25 mg P/kg/day sc): 2.0 ± 2.4
- Histology Score Observer #1 x ± S.D. ([5]; 6.25 mg P/kg/day sc): 0.3 ± 0.5
- Histology Score Observer #2 x ± S.D. ([5]; 6.25 mg P/kg/day sc): 0.1 ± 0.3
- extent of von Kossa staining in the abdominal aorta ([5]; 6.25 mg P/kg/day, highest dose tested): significantly reduced
- Bone Resorption Relative potency [6]: 1
- Serum Ca ([7]; 0.25 mg P/kg/day, 84 h): 13.7 ± 1.2 mg/dL
- Serum P ([7]; 0.25 mg P/kg/day, 84 h): 10.8 ± 0.5 mg/dL
- Serum Ca ([7]; 1.25 mg P/kg/day, 84 h): 13.5 ± 0.7 mg/dL
- Serum P ([7]; 1.25 mg P/kg/day, 84 h): 9.5 ± 0.3 mg/dL
- Serum Ca [7, 13]: 15.0 ± 0.5 mg/dL
- Serum P [7, 13]: 8.2 ± 0.4 mg/dL
